The subject of this assay is Acinetobacter baumannii ATCC17961. Briefly: Antimicrobial susceptibility testing: 90% growth inhibitory concentration (IC90) determination in Iso-Sensitest broth, OD600 growth. It is filed as cell-based. The gist of the method:
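Compounds were twofold serially diluted in DMSO across 10 points (e.g. 50 to 0.097 μM final) and inoculated at ~5×10^(5) CFU/ml. Plates incubated at 35±2° C, with OD600 read every 20 minutes over 16 h. IC90 was derived from growth inhibition during logarithmic growth.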

Setting [1] is: Acinetobacter baumannii, ATCC17961, 16 h, strain ATCC 17961, OD600 growth over 16 h, read-out: A. baumannii ATCC 17961 IC90.
Setting [2] is: Acinetobacter baumannii, ATCC17961, 16 h, read-out: A. baumannii ATCC 17961 IC90 (uM), strain ATCC 17961, OD600 growth over 16 h.
The mark [3] stands for this setting: strain ATCC 17961, OD600 growth over 16 h, read-out: A. baumannii ATCC 17961 IC90.

Structures can show the parent of a compound that is named as a salt. Where two headings read alike, the source gives them in different places.

As for `CCc1cc(Nc2nccn3c(-c4cn(CC#N)nc4C(F)(F)F)cnc23)ccc1C(=O)NCC#N` [Example 251, N-(cyanomethyl)-4-[[3-[1-(cyanomethyl)-3-(trifluoromethyl)pyrazol-4-yl]imidazo[1,2-a]pyrazin-8-yl]amino]-2-ethylbenzamide], under setting [1], the IC90 (in general, the concentration at which the effect reaches the 90% level) was found to be 0.136 µM.

Take `N#CCn1cc(-c2cnc3c(Nc4ccc(C(=O)N5CC[C@H](O)C5)c(Cl)c4)nccn23)c(C(F)(F)F)n1` [Example 243, 2-[4-[8-[3-chloro-4-[(3S)-3-hydroxypyrrolidine-1-carbonyl]anilino]imidazo[1,2-a]pyrazin-3-yl]-3-(trifluoromethyl)pyrazol-1-yl]acetonitrile]: under setting [1], the IC90 worked out at 0.384 µM.

As to `O=C(c1ccc(Nc2nccn3c(-c4cn(C(F)F)nc4C(F)(F)F)cnc23)cc1Cl)N1CC2(C1)CN(C(=O)[C@@H]1CCCN1)C2` [Example 763, (S)-(2-chloro-4-((3-(1-(difluoromethyl)-3-(trifluoromethyl)-1H-pyrazol-4-yl)imidazo[1,2-a]pyrazin-8-yl)amino)phenyl)(6-prolyl-2,6-diazaspiro[3.3]heptan-2-yl)methanone], the 90% effect concentration (IC90) under setting [1] was 0.75 µM. Take `N#CCn1cc(-c2cnc3c(Nc4ccc(C(=O)N5CCN(C(=O)CCN)CC5)c(Cl)c4)nccn23)c(C(F)(F)F)n1` [Example 286, 2-[4-[8-[4-[4-(3-aminopropanoyl)piperazine-1-carbonyl]-3-chloroanilino]imidazo[1,2-a]pyrazin-3-yl]-3-(trifluoromethyl)pyrazol-1-yl]acetonitrile formate]: under setting [2], the IC90 stood at 0.226 µM.

For `Cc1cc(Nc2nccn3c(-c4cn(CC#N)nc4C(F)(F)F)cnc23)ccc1C(=O)N1CCN(C(=O)[C@@H]2C[C@](C)(O)CN2)CC1` [Example 424, formic acid; 2-[4-[8-[4-[4-[(2S,4S)-4-hydroxy-4-methylpyrrolidine-2-carbonyl]piperazine-1-carbonyl]-3-methylanilino]imidazo[1,2-a]pyrazin-3-yl]-3-(trifluoromethyl)pyrazol-1-yl]acetonitrile], the IC90 under setting [2] stood at 0.685 µM.

For `NC1CCC(NC(=O)c2ccc(Nc3nccn4c(-c5c[nH]nc5C(F)(F)F)cnc34)cc2Cl)CC1` (stereo not drawn) [Example 405, N-(4-aminocyclohexyl)-2-chloro-4-[[3-[3-(trifluoromethyl)-1H-pyrazol-4-yl]imidazo[1,2-a]pyrazin-8-yl]amino]benzamide], the IC90 under setting [3] is 1.3 µM. On the same count and under the same terms, as for `CCc1cc(Nc2nccn3c(-c4c(C(F)(F)F)n[nH]c4C)cnc23)ccc1C(=O)NCCOCCN` [Example 24, N-[2-(2-aminoethoxy)ethyl]-2-ethyl-4-[[3-[5-methyl-3-(trifluoromethyl)-1H-pyrazol-4-yl]imidazo[1,2-a]pyrazin-8-yl]amino] benzamide formate], the figure is 0.523 µM; as for `C=CCn1cc(-c2cnc3c(Nc4ccc(C(=O)N[C@H](C)CNC(=O)OC(C)(C)C)c(CC)c4)nccn23)c(C(F)(F)F)n1` [Example 129, tert-butyl N-[(2R)-2-[[2-ethyl-4-[[3-[1-prop-2-enyl-3-(trifluoromethyl)pyrazol-4-yl]imidazo[1,2-a]pyrazin-8-yl]amino]benzoyl]amino]propyl] carbamate], 1.06 µM. Regarding `CNC(=O)c1ccc(Nc2nccn3c(-c4cn(CCCc5ccc(CN)cc5)nc4C(F)(F)F)cnc23)cc1Cl` [Example 594, 4-((3-(1-(3-(4-(aminomethyl)phenyl)propyl)-3-(trifluoromethyl)-1H-pyrazol-4-yl)imidazo[1,2-a]pyrazin-8-yl)amino)-2-chloro-N-methylbenzamide formate], the IC90 under setting [2] was determined as 0.164 µM. The same measure, in the same setting: with `Cc1cc(Nc2nccn3c(-c4c[nH]nc4C(F)(F)F)cnc23)ccc1C(=O)N1CCN(C(=O)N[C@@H]2CCNC2)CC1` [Example 416, formic acid; 4-[2-methyl-4-[[3-[3-(trifluoromethyl)-1H-pyrazol-4-yl]imidazo[1,2-a]pyrazin-8-yl]amino]benzoyl]-N-[(3R)-pyrrolidin-3-yl]piperazine-1-carboxamide] the figure was 0.441 µM; with `N#CCn1cc(-c2cnc3c(Nc4ccc(C(=O)NCC(=O)N5CC[C@@H](N)C5)c(Cl)c4)nccn23)c(C(F)(F)F)n1` [Example 663, N-[2-[(3R)-3-aminopyrrolidin-1-yl]-2-oxo-ethyl]-2-chloro-4-[[3-[1-(cyanomethyl)-3-(trifluoromethyl)pyrazol-4-yl]imidazo[1,2-a]pyrazin-8-yl]amino]benzamide formate], 0.285 µM. As for `C#CCn1cc(-c2cnc3c(Nc4ccc(C(=O)N5CCN(C(=O)[C@@H]6C[C@@H](O)CN6)CC5)c(CC)c4)nccn23)c(C(F)F)n1` [Example 785, (4-(4-((3-(3-(difluoromethyl)-1-(prop-2-yn-1-yl)-1H-pyrazol-4-yl)imidazo[1,2-a]pyrazin-8-yl)amino)-2-ethylbenzoyl)piperazin-1-yl)((2S,4R)-4-hydroxypyrrolidin-2-yl)methanone], the IC90 under setting [1] was 1.32 µM. Same read-out and setting: with `Cc1cc(Nc2nccn3c(-c4cn(CCF)nc4C(F)(F)F)cnc23)cc(F)c1C(=O)NCCOCCN` [Example 61, N-[2-(2-aminoethoxy)ethyl]-2-fluoro-4-[[3-[1-(2-fluoroethyl)-3-(trifluoromethyl)pyrazol-4-yl]imidazo[1,2-a]pyrazin-8-yl]amino]-6-methylbenzamide] the figure was 0.232 µM. Same read-out and setting: with `C[C@H](N)C(=O)N1CCN(C(=O)c2ccc(Nc3nccn4c(-c5cn(CC#N)nc5C(F)(F)F)cnc34)cc2Cl)CC1` [Example 187, 2-[4-[8-[4-[4-[(2S)-2-aminopropanoyl]piperazine-1-carbonyl]-3-chloroanilino]imidazo[1,2-a]pyrazin-3-yl]-3-(trifluoromethyl)pyrazol-1-yl]acetonitrile] the figure was 0.159 µM. For `CCc1cc(Nc2nccn3c(-c4cn(CC#N)nc4C(F)(F)F)cnc23)ccc1C(=O)NC` [Example 341, 4-[[3-[1-(cyanomethyl)-3-(trifluoromethyl)pyrazol-4-yl]imidazo[1,2-a]pyrazin-8-yl]amino]-2-ethyl-N-methylbenzamide], under setting [1], the IC90 stood at 0.223 µM.

Take `Cc1cc(Nc2nccn3c(-c4c[nH]nc4C(F)(F)F)cnc23)ccc1C(=O)NCCNC(=O)[C@@H]1C[C@@H](O)CN1` [Example 444, formic acid; (2S,4R)-4-hydroxy-N-[2-[[2-methyl-4-[[3-[3-(trifluoromethyl)-1H-pyrazol-4-yl]imidazo[1,2-a]pyrazin-8-yl]amino]benzoyl]amino]ethyl]pyrrolidine-2-carboxamide]: the IC90 under setting [2] amounted to 1.43 µM. Consider `Cc1cc(Nc2nccn3c(-c4cn(CC(F)F)nc4C(F)(F)F)cnc23)cc(F)c1C(=O)N[C@H](C)CN` [Example 704, (R)-N-(1-aminopropan-2-yl)-4-((3-(1-(2,2-difluoroethyl)-3-(trifluoromethyl)-1H-pyrazol-4-yl)imidazo[1,2-a]pyrazin-8-yl)amino)-2-fluoro-6-methylbenzamide], for which the IC90 under setting [1] stood at 0.386 µM.

Take `CCc1cc(Nc2nccn3c(-c4cn(CC#N)nc4C(F)(F)F)cnc23)ccc1C(=O)NCCNC(=O)[C@@H]1CCCN1` [Example 3, (2S)—N-[2-[[4-[[3-[1-(cyanomethyl)-3-(trifluoromethyl)pyrazol-4-yl]imidazo[1,2-a]pyrazin-8-yl]amino]-2-ethylbenzoyl]amino]ethyl]pyrrolidine-2-carboxamide]: under setting [1], the IC90 was found to be 0.16 µM.

`Cc1cc(Nc2nccn3c(-c4cn(CC#N)nc4C(F)(F)F)cnc23)ccc1C(=O)N1CCN(C(=O)[C@@H]2C[C@@H](O)CN2)CC1` [Example 422, formic acid; 2-[4-[8-[4-[4-[(2S,4R)-4-hydroxypyrrolidine-2-carbonyl]piperazine-1-carbonyl]-3-methylanilino]imidazo[1,2-a]pyrazin-3-yl]-3-(trifluoromethyl)pyrazol-1-yl]acetonitrile]: under setting [2], the IC90 is 0.63 µM. The same measure, in the same setting: as for `NCCC(=O)N1CCN(C(=O)c2ccc(Nc3nccn4c(-c5c[nH]nc5C(F)(F)F)cnc34)cc2Cl)CC1` [Example 400, 3-amino-1-[4-[2-chloro-4-[[3-[3-(trifluoromethyl)-1H-pyrazol-4-yl]imidazo[1,2-a]pyrazin-8-yl]amino]benzoyl]piperazin-1-yl]propan-1-one formate], the figure is 0.217 µM. In the case of `CCc1cc(Nc2nccn3c(-c4cn(CC#N)nc4C(F)(F)F)cnc23)ccc1C(=O)NCC(=O)N1CCC(N)CC1` [Example 500, N-[2-(4-amino-1-piperidyl)-2-oxo-ethyl]-4-[[3-[1-(cyanomethyl)-3-(trifluoromethyl)pyrazol-4-yl]imidazo[1,2-a]pyrazin-8-yl]amino]-2-ethyl-benzamide formate], the IC90 under setting [1] was 0.222 µM. As for `CCc1cc(Nc2nccn3c(-c4cn(CC(C)(CO)CCl)nc4C(F)(F)F)cnc23)ccc1C(=O)NCCOCCN` (stereo not drawn) [Example 279, N-[2-(2-aminoethoxy)ethyl]-4-[[3-[1-[2-(chloromethyl)-3-hydroxy-2-methylpropyl]-3-(trifluoromethyl)pyrazol-4-yl]imidazo[1,2-a]pyrazin-8-yl]amino]-2-ethylbenzamide formate], the IC90 under setting [2] stood at 0.664 µM. Consider `CCc1cc(Nc2nccn3c(-c4c[nH]nc4C(F)(F)F)cnc23)ccc1C(=O)NCCOCCN1CCOCC1` [Example 772, 2-ethyl-N-(2-(2-morpholinoethoxy)ethyl)-4-((3-(3-(trifluoromethyl)-1H-pyrazol-4-yl)imidazo[1,2-a]pyrazin-8-yl)amino)benzamide], for which the IC90 under setting [1] worked out at 0.968 µM. In the case of `O=C(NCC1(O)CNC1)N1CCN(C(=O)c2ccc(Nc3nccn4c(-c5cn(CC(F)F)nc5C(F)(F)F)cnc34)cc2Cl)CC1` [Example 580, 4-(2-chloro-4-((3-(1-(2,2-difluoroethyl)-3-(trifluoromethyl)-1H-pyrazol-4-yl)imidazo[1,2-a]pyrazin-8-yl)amino)benzoyl)-N-((3-hydroxyazetidin-3-yl)methyl)piperazine-1-carboxamide formate], the IC90 under setting [2] amounted to 0.322 µM.
